We go through six molecules from patent US9340590B2 (priority 2011, dated 2016).

pIC50: −log10 of the molar value. Read-outs that look alike come from different tables or passages of the source. Positions of bridges follow the written chain, without caps; N, C: chain ends. Residues, ends and D or L forms follow the SMILES beside them. Where only a bound is given, the exact number is not on record here.

Holding throughout (assay): cell-based
One test concerns the target hNav1.7 (Homo sapiens, UniProt Q15858). The class given is cell-based. The note with it: IonWorks Quattro, read-out: IWQ Use Nav1.7. (Patch clamp records ionic current or voltage across a cell membrane.)
The target of a further test is hNav1.3 (Homo sapiens, UniProt Q9NY46). The following applies: IonWorks Quattro, read-out: IWQ Use Nav1.3.
Another test concerns the target hNav1.5 (Homo sapiens, UniProt Q14524). The following applies: IonWorks Quattro, read-out: IWQ Use Nav1.5.
The mark [1] stands for this setting: clamped to −110 mV, depolarized to −10 mV, 5 min after compound, n=2.

Sequence of hNav1.3 (Q9NY46 whole entry, looked up): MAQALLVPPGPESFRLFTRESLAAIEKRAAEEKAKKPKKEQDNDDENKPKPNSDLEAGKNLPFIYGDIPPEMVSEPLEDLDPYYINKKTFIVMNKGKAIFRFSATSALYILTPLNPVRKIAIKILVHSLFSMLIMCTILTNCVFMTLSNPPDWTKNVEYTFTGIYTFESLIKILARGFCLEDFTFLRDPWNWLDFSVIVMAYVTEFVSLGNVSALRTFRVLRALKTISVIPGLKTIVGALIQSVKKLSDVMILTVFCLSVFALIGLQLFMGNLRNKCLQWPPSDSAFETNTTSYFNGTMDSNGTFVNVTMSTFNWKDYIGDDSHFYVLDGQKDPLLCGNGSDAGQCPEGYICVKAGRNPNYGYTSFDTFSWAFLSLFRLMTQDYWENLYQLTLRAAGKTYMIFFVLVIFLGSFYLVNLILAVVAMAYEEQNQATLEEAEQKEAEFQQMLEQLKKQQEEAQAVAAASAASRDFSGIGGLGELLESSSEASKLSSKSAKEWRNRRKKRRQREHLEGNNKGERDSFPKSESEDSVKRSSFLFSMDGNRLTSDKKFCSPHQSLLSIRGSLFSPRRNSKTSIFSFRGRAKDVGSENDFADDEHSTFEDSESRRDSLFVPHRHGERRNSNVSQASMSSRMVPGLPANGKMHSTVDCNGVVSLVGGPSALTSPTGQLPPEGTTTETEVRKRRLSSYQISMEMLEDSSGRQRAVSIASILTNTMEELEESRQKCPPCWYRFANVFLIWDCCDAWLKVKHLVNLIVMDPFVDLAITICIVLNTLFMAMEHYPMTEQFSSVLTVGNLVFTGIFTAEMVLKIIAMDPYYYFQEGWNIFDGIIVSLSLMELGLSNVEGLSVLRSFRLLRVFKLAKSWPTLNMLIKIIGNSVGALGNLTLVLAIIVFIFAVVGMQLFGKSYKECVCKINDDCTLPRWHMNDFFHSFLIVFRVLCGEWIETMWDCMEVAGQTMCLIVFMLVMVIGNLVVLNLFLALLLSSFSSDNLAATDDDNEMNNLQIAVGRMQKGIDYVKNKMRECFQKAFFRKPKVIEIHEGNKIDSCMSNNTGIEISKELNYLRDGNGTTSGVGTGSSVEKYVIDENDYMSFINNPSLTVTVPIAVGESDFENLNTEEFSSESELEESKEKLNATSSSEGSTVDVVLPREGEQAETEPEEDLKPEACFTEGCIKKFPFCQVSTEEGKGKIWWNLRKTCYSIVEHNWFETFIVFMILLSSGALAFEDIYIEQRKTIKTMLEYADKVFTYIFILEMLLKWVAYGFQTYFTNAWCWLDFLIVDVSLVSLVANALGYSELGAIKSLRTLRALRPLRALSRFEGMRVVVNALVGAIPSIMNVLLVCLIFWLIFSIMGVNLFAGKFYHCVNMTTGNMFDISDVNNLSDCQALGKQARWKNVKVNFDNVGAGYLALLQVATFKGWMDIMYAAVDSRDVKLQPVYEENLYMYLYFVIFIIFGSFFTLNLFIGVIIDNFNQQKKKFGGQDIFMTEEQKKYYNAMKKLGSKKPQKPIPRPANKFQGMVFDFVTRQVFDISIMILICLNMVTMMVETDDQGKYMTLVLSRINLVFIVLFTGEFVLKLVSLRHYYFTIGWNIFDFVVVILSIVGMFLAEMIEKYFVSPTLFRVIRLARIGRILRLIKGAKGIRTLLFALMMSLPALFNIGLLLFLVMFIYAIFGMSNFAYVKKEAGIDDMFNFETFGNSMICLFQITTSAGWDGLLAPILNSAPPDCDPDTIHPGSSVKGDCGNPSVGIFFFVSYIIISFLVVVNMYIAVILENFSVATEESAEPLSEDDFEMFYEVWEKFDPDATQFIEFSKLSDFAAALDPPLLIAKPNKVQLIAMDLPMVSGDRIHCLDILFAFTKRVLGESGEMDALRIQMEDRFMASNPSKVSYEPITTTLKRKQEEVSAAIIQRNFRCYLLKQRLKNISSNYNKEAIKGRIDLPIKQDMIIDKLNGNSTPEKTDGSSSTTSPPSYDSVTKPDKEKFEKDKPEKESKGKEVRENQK
Sequence of hNav1.5 (Q14524 whole entry, looked up): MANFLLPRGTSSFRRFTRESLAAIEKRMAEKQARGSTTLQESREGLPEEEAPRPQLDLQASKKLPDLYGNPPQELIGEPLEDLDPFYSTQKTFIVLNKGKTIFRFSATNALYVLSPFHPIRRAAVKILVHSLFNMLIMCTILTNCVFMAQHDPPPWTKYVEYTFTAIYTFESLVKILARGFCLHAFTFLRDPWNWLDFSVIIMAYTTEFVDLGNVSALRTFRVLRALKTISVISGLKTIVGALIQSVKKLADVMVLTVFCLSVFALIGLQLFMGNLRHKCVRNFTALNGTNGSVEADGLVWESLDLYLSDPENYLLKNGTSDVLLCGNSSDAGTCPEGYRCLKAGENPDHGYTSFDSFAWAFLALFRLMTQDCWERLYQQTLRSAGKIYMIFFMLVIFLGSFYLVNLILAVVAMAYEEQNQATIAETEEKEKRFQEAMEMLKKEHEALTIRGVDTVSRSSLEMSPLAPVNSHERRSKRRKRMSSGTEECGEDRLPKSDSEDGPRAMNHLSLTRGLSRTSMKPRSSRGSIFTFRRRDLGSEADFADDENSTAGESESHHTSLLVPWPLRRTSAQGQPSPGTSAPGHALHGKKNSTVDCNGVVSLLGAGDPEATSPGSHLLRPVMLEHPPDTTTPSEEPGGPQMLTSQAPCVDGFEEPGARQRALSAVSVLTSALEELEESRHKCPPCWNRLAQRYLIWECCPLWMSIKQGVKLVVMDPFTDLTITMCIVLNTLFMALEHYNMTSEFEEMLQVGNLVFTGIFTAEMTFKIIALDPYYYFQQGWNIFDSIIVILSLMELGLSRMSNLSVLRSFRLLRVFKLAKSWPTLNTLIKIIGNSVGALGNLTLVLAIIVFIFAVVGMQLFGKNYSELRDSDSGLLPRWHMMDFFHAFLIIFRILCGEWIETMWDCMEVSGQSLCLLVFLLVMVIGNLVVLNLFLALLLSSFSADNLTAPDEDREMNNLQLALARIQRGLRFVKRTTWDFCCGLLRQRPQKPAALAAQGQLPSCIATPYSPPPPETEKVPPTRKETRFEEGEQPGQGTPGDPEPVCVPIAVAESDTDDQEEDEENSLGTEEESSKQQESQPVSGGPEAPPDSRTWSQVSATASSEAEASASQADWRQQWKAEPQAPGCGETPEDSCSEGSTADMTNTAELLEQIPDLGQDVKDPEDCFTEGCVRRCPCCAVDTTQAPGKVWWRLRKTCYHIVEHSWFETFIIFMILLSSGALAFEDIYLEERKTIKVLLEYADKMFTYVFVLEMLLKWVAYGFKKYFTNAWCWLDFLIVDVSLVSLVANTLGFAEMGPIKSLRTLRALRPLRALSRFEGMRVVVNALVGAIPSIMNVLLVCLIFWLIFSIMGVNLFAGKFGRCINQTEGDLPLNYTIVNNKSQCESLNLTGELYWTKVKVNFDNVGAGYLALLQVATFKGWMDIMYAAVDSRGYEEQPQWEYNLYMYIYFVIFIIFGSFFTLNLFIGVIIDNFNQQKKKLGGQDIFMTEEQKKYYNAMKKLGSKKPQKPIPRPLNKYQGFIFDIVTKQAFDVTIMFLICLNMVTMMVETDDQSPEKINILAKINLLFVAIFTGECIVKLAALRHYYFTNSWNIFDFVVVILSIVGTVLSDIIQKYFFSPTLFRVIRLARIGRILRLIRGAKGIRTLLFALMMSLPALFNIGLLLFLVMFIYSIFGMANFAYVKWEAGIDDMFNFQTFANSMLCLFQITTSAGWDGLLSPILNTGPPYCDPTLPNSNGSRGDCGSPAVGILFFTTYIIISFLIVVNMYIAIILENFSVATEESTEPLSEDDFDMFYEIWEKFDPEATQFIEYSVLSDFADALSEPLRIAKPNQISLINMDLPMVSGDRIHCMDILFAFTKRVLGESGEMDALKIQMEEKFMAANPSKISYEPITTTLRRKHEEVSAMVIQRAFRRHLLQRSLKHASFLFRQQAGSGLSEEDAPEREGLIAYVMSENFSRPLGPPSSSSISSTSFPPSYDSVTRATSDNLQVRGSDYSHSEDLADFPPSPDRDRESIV

As to `CC[C@H](C)[C@@H]1NC(=O)[C@@H]2CSSC[C@@H]3NC(=O)[C@H](C(C)C)NC(=O)[C@H](CC(C)C)NC(=O)[C@H](CC(N)=O)NC(=O)[C@@H]4CCCN4C(=O)[C@H](CCCNC(=N)N)NC(=O)[C@H](CSSC[C@H](NC(=O)[C@@H](N)CC(=O)O)C(=O)N[C@@H](CC(C)C)C(=O)N[C@@H](CCC(=O)O)C(=O)N[C@@H](C)C(=O)N[C@@H](CCSC)C(=O)N[C@@H](CCCNC(=N)N)C(=O)N[C@@H](CCCCN)C(=O)N2)NC(=O)[C@H](CSSC[C@@H](C(=O)N[C@@H](CCCCN)C(=O)N[C@@H](Cc2ccc(O)cc2)C(=O)N[C@H](C(=O)N[C@@H](Cc2ccccc2)C(N)=O)C(C)C)NC(=O)[C@H](Cc2c[nH]c4ccccc24)NC(=O)[C@H](CCCCN)NC(=O)[C@H](Cc2c[nH]cn2)NC(=O)[C@H]([C@@H](C)O)NC(=O)[C@H](CCCNC(=N)N)NC(=O)[C@H](CO)NC3=O)NC(=O)[C@H](CCCCN)NC(=O)[C@H](CC(=O)O)NC(=O)[C@H](CC(N)=O)NC(=O)[C@H](CC(=O)O)NC(=O)[C@@H]2CCCN2C1=O` [compound 429] (H-DCLEAMRKCIPDNDKCCRPNLVCSRTHKWCKYVF-NH2; disulfide 2-17, 9-23, 16-30), the pIC50 at hNav1.7 (use-dependent block, hNav1.7) was 5.33; at hNav1.3 (use-dependent block, hNav1.3), 5.40; at hNav1.5 (use-dependent block, hNav1.5), under 5.30.
Regarding `CC[C@@H]1NC(=O)CNC(=O)[C@H](CC(C)C)NC(=O)[C@@H](NC(=O)[C@@H](N)CC(=O)O)CSSC[C@@H]2NC(=O)[C@@H]3CSSC[C@@H](C(=O)N[C@@H](CCCCN)C(=O)N[C@@H](Cc4ccc(O)cc4)C(=O)N[C@H](C(=O)N[C@@H](Cc4ccccc4)C(N)=O)C(C)C)NC(=O)[C@H](Cc4c[nH]c5ccccc45)NC(=O)[C@H](CCCCN)NC(=O)[C@H](Cc4cnc[nH]4)NC(=O)[C@H]([C@@H](C)O)NC(=O)[C@H](CCCNC(=N)N)NC(=O)[C@H](CO)NC(=O)[C@H](CSSC[C@H](NC(=O)[C@H](CCCCN)NC(=O)[C@H](CCCNC(=N)N)NC(=O)[C@H](CCSC)NC1=O)C(=O)N[C@@H]([C@@H](C)CC)C(=O)N1CCC[C@H]1C(=O)N[C@@H](CC(=O)O)C(=O)N[C@@H](CC(N)=O)C(=O)N[C@@H](CC(=O)O)C(=O)N[C@@H](CCCCN)C(=O)N3)NC(=O)[C@H](C(C)C)NC(=O)[C@H](CC(C)C)NC(=O)[C@H](CC(N)=O)NC(=O)[C@@H]1CCCN1C(=O)[C@H](CCCNC(=N)N)NC2=O` [compound 649], the pIC50 was 6.16 at hNav1.7 (use-dependent protocol, hNav1.7); 5.89 on hNav1.3 (use-dependent protocol, hNav1.3); under 5.30 at hNav1.5 (use-dependent protocol, hNav1.5).
For `CC[C@H](C)[C@@H]1NC(=O)[C@@H]2CSSC[C@@H]3NC(=O)[C@H](C(C)C)NC(=O)[C@H](CC(C)C)NC(=O)[C@H](CC(N)=O)NC(=O)[C@@H]4CCCN4C(=O)[C@H](CCCNC(=N)N)NC(=O)[C@H](CSSC[C@H](NC(=O)[C@@H](N)CC(=O)O)C(=O)N[C@@H](CC(C)C)C(=O)NCC(=O)N[C@@H](C)C(=O)N[C@@H](CC(C)C)C(=O)N[C@@H](CCCNC(=N)N)C(=O)N[C@@H](CCCCN)C(=O)N2)NC(=O)[C@H](CSSC[C@@H](C(=O)N[C@@H](CCCCN)C(=O)N[C@@H](Cc2ccc(O)cc2)C(=O)N[C@H](C(=O)N[C@@H](Cc2ccccc2)C(=O)O)C(C)C)NC(=O)[C@H](Cc2c[nH]c4ccccc24)NC(=O)[C@H](CC(C)C)NC(=O)[C@H](Cc2c[nH]cn2)NC(=O)[C@H]([C@@H](C)O)NC(=O)[C@H](CCCNC(=N)N)NC(=O)[C@H](CO)NC3=O)NC(=O)[C@H](CCCCN)NC(=O)[C@H](CC(=O)O)NC(=O)[C@H](CC(N)=O)NC(=O)[C@H](CC(=O)O)NC(=O)[C@@H]2CCCN2C1=O` [compound 856] (H-DCLGALRKCIPDNDKCCRPNLVCSRTHLWCKYVF-OH; disulfide 2-17, 9-23, 16-30), the pIC50 was 5.39 on hNav1.7 (use-dependent block, hNav1.7); 5.39 on hNav1.3 (use-dependent block, hNav1.3); under 5.30 at hNav1.5 (use-dependent block, hNav1.5).
Take `CC[C@H](C)[C@@H]1NC(=O)[C@@H]2CSSC[C@@H]3NC(=O)[C@H](C(C)C)NC(=O)[C@H](CC(C)C)NC(=O)[C@H](CC(N)=O)NC(=O)[C@@H]4CCCN4C(=O)[C@H](CCCNC(=N)N)NC(=O)[C@H](CSSC[C@H](NC(=O)[C@@H](N)CC(=O)O)C(=O)N[C@@H](CC(C)C)C(=O)NCC(=O)N[C@@H](CCSC)C(=O)N[C@@H](CCSC)C(=O)N[C@@H](CCCNC(=N)N)C(=O)N[C@@H](CCCCN)C(=O)N2)NC(=O)[C@H](CSSC[C@@H](C(=O)N[C@@H](CCCCN)C(=O)N[C@@H](Cc2ccc(O)cc2)C(=O)N[C@H](C(=O)N[C@@H](Cc2ccccc2)C(N)=O)C(C)C)NC(=O)[C@H](Cc2c[nH]c4ccccc24)NC(=O)[C@H](CCCCN)NC(=O)[C@H](Cc2cnc[nH]2)NC(=O)[C@H]([C@@H](C)O)NC(=O)[C@H](CCCNC(=N)N)NC(=O)[C@H](CO)NC3=O)NC(=O)[C@H](CCCCN)NC(=O)[C@H](CC(=O)O)NC(=O)[C@H](CC(N)=O)NC(=O)[C@H](CC(=O)O)NC(=O)[C@@H]2CCCN2C1=O` [SEQ ID NO: 268] (H-DCLGMMRKCIPDNDKCCRPNLVCSRTHKWCKYVF-NH2; disulfide 2-17, 9-23, 16-30): the pIC50 at hNav1.7 (setting [1]) is 7.00; at hNav1.3 (setting [1]), 6.62; at hNav1.5 (setting [1]) it was 4.89.
Regarding `CC[C@H](C)[C@@H]1NC(=O)[C@@H]2CSSC[C@@H]3NC(=O)[C@H](C(C)C)NC(=O)[C@H](CC(C)C)NC(=O)[C@H](CC(N)=O)NC(=O)[C@@H]4CCCN4C(=O)[C@H](CCCNC(=N)N)NC(=O)[C@H](CSSC[C@H](NC(=O)[C@@H](N)CC(=O)O)C(=O)N[C@@H](CC(C)C)C(=O)NCC(=O)N[C@@H](C)C(=O)N[C@@H](CCSC)C(=O)N[C@@H](CCCNC(=N)N)C(=O)N[C@@H](CCCCN)C(=O)N2)NC(=O)[C@H](CSSC[C@@H](C(=O)N[C@@H](CCCCN)C(=O)N[C@@H](Cc2ccc(O)cc2)C(=O)N[C@H](C(=O)N[C@@H](Cc2ccccc2)C(N)=O)C(C)C)NC(=O)[C@H](Cc2c[nH]c4ccccc24)NC(=O)[C@H](CCCCN)NC(=O)[C@H](CCC(=O)O)NC(=O)[C@H]([C@@H](C)O)NC(=O)[C@H](CCCNC(=N)N)NC(=O)[C@H](CO)NC3=O)NC(=O)[C@H](CCCCN)NC(=O)[C@H](CC(=O)O)NC(=O)[C@H](CC(N)=O)NC(=O)[C@H](CC(=O)O)NC(=O)[C@@H]2CCCN2C1=O` [compound 788] (H-DCLGAMRKCIPDNDKCCRPNLVCSRTEKWCKYVF-NH2; disulfide 2-17, 9-23, 16-30), the pIC50 was under 5.30 on hNav1.7 (use-dependent block, hNav1.7); under 5.30 at hNav1.3 (use-dependent block, hNav1.3); 4.53 on hNav1.5 (use-dependent block, hNav1.5).
`CC[C@H](C)[C@@H]1NC(=O)[C@@H]2CSSC[C@@H]3NC(=O)[C@H](C(C)C)NC(=O)[C@H](CC(C)C)NC(=O)[C@H](CC(N)=O)NC(=O)[C@@H]4CCCN4C(=O)[C@H](CCCNC(=N)N)NC(=O)[C@H](CSSC[C@H](NC(=O)[C@@H](N)CC(=O)O)C(=O)N[C@@H](CC(C)C)C(=O)NCC(=O)N[C@@H](C)C(=O)N[C@@H](Cc4ccccc4)C(=O)N[C@@H](CCCNC(=N)N)C(=O)N[C@@H](CCCCN)C(=O)N2)NC(=O)[C@H](CSSC[C@@H](C(=O)N[C@@H](CCCCN)C(=O)N[C@@H](Cc2ccc(O)cc2)C(=O)N[C@H](C(=O)N[C@@H](Cc2ccccc2)C(=O)O)C(C)C)NC(=O)[C@H](Cc2c[nH]c4ccccc24)NC(=O)[C@H](CCCNC(=N)N)NC(=O)[C@H](Cc2c[nH]cn2)NC(=O)[C@H]([C@@H](C)O)NC(=O)[C@H](CCCNC(=N)N)NC(=O)[C@H](CO)NC3=O)NC(=O)[C@H](CCCCN)NC(=O)[C@H](CC(=O)O)NC(=O)[C@H]([C@@H](C)O)NC(=O)[C@H](CC(=O)O)NC(=O)[C@@H]2CCCN2C1=O` [compound 850]: the pIC50 on hNav1.7 (use-dependent block, hNav1.7) was under 5.30; on hNav1.3 (use-dependent block, hNav1.3) it was 5.89; on hNav1.5 (use-dependent block, hNav1.5) it was under 5.30.
